The text below walks through data of patent US20080096244A1, “D-AMINOACYLASE” (DAIICHI PURE CHEMICALS CO., LTD., priority 2002, published 2008).

Data set [1] deals with D-aminoacylase from the Defluvibacter sp. A131-3 strain. The data set is described as follows: Effects of inhibitor on D-aminoacylase activity (D-valine produced, HPLC). The following applies: for Effects of inhibitors on activity: each at 5 mmol/L; for Relative activity (%): inhibitor 5 mmol/L, 0.5 mol/L N-acetyl-D-valine, enzyme 500 U, 40° C., 1 day, no addition of inhibitor = 100%. The data set is classed as biochemical. The procedure: The detection was conducted at 230 nm. The column was analyzed at a temperature of 30° C. The enzymatic activity was evaluated in terms of the ratio between the area of the acetyl compound and the free compound, and the resolution rate was expressed as a […]

Data set [2] shares this test system. In words: Effects of metal ions on D-aminoacylase activity (D-valine produced, HPLC). The data set is classed as biochemical. The settings on record: for Effects of metal ions on activity: each at 1 mmol/L; for Relative activity (%): metal ion 1.0 mmol/L, 0.5 mol/L N-acetyl-D-valine, enzyme 500 U, 40° C., 1 day, no metal addition = 100%.
The test system is the same in data set [3]. The data set is described as follows: Substrate specificity, acylase activity measurement using D-/L-amino acid oxidase chromogenic reagent. The data set is classed as biochemical. The following applies: for Relative activity (% in relation to Met): activity of N-acetyl-D-methionine = 100; for Relative activity (% in relation to Met) / Relative activity (% in relation to Val): 100 mmol/L substrate solution, pH 8, 37° C., 30 minutes; for Relative activity (% in relation to Val): activity of N-acetyl-D-valine = 100; for Substrate specificity: whether the enzyme acts on the substrate: D- or L-amino acid oxidase detection. The source says:
(4) Substrate specificity: Substrate specificity of the acylase of the present invention was confirmed by using the following N-acetyl-D-amino acids and N-acetyl-L-amino acids as the substrate and combining therewith the D-amino acid oxidase or the L-amino acid oxidase. The acylase of the present invention acts on the following N-acetyl-D-amino acids but not on the N-acetyl-L-amino acids.
In the measurement of the reactivity with the L-amino acids, an oxidase for L-amino acids is used instead of the D-amino acid oxidase in the activity measurement as will be described below.
4. Substrate specificity was determined by an activity measurement method using the chromogenic reagents for the D- and L-amino acid oxidases as described above.

Data set [4] in a line: Optimal temperature of the enzyme. Format: biochemical, Defluvibacter sp. A131-3. The following applies: pH 8, 30 minutes.
A short description of data set [5]: Isoelectric point by two-dimensional electrophoresis for denatured system. The data set is classed as physicochemical, Defluvibacter sp. A131-3. The settings on record: calculated from mobility of 2D-protein isoelectric point markers. As to the method: (3) Isoelectric point: Isoelectric point is measured on the basis of two-dimensional electrophoresis process by two-dimensional electrophoresis for denatured system (using IPG tube gel “Daiichi” 4-10 and PAG Large “Daiichi” 2D-10/20 manufactured by Daiichi Pure Chemicals Co., Ltd.). The pI value of 5.3 is calculated from mobility of 2D-protein isoelectric point markers (2D-protein isoelectric point markers “Daiichi” manufactured by Daiichi Pure Chemicals Co., Ltd.).
3. Protein isoelectric point was measured on the bases of two-dimensional electrophoresis process by two-dimensional electrophoresis for denatured system (using IPG tube gel “Daiichi” 4-10 and PAG Large “Daiichi” 2D-10/20 manufactured by Daiichi Pure Chemicals Co., Ltd.). The pI value of the enzyme of the present invention calculated from the mobility of the pI values 5.1, 5.2, 5.3, 5.4, 5.7, 6.0, 6.2, 6.4, 6.5, 6.7, 6.8, 7.0, and 7.1 of the 2D-protein isoelectric point markers (2D-protein isoelectric point markers “Daiichi” manufactured by Daiichi Pure Chemicals Co., Ltd.) was 5.3.

For data set [6] the following is noted: 30° C., 1 day.

“Also recorded” adds a separate entry of the source.

Consider `O[C@H](CS)[C@H](O)CS` (racemic) [Dithiothreitol, dithiothreitol], for which, in data set [1], the “Effects of inhibitors on activity” value is given as “inhibited” and the “Relative activity (%)” value was 38%.

Turning to `OCCS` [2-mercaptoethanol], the “Effects of inhibitors on activity” value in data set [1] was “inhibited”.

With `O.O.O.O.O.O.[Cl-].[Cl-].[Co+2]` [Cobalt (II) chloride, cobalt (II) chloride hexahydrate], in data set [2], the “Effects of metal ions on activity” value is reported as “inhibited” and the “Relative activity (%)” value came to 27%.

In the case of `O=C(O)CN(CCN(CC(=O)O)CC(=O)O)CC(=O)O` [Ethylenediamine tetraacetic acid, ethylenediamine tetraacetic acid], in data set [1], the “Relative activity (%)” value came to 112%.

Turning to `NC(=O)CI` [Iodacetamide, iodacetamide], the “Relative activity (%)” value in data set [1] came out at 107%.

For the molecule `N[C@@H](CS)C(=O)O` [L-cysteine], the “Effects of inhibitors on activity” value in data set [1] is “inhibited”.

Take `O.O.O.O.[Cl][Mn][Cl]` [Manganese chloride, manganese (II) chloride tetrahydrate]: in data set [2], the “Effects of metal ions on activity” value was “inhibited” and the “Relative activity (%)” value turned out to be 48%.

On to `CC(=O)N[C@H](CCC(=O)O)C(=O)O` [N-Ac-D-Glu, N-acetyl-D-glutamic acid], for which, in data set [3], the “Relative activity (% in relation to Met)” value was found to be 0% and the “Relative activity (% in relation to Val)” value stood at 0%.

With `CC(=O)N[C@H](CC(C)C)C(=O)O` [N-Ac-D-Leu, N-acetyl-D-leucine], in data set [3], the “Substrate specificity: whether the enzyme acts on the substrate” value (from here on “Substrate specificity”) is given as “to some extent; also recorded: acting on”, the “Relative activity (% in relation to Met)” value is listed as 555% and the “Relative activity (% in relation to Val)” value is listed as 73%.

On to `CSCC[C@@H](NC(C)=O)C(=O)O` [N-Ac-D-Met, N-acetyl-D-methionine], for which, in data set [3], the “Substrate specificity” value is reported as “to some extent; also recorded: acting on”, the “Relative activity (% in relation to Met)” value was determined as 100% and the “Relative activity (% in relation to Val)” value stood at 13%.

`CC(=O)N[C@H](Cc1ccccc1)C(=O)O` [N-Ac-D-Phe, N-acetyl-D-phenylalanine]: in data set [3], the “Substrate specificity” value was “to some extent; also recorded: acting on”, the “Relative activity (% in relation to Met)” value worked out at 37% and the “Relative activity (% in relation to Val)” value was determined as 4.8%.

Consider `CC(=O)N[C@H](Cc1c[nH]c2ccccc12)C(=O)O` [N-Ac-D-Trp, N-acetyl-D-tryptophan], for which, in data set [3], the “Substrate specificity” value is recorded as “to some extent”, the “Relative activity (% in relation to Met)” value is 1.1% and the “Relative activity (% in relation to Val)” value came out at 0.2%. The “Substrate specificity” value in data set [3] (listed as N-acetyl-D-triptophan) is given as “acting on”.

For `CC(=O)N[C@H](Cc1ccc(O)cc1)C(=O)O` [N-Ac-D-Tyr, N-acetyl-D-tyrosine], in data set [3], the “Substrate specificity” value is “to some extent; also recorded: acting on”, the “Relative activity (% in relation to Met)” value is 8.4% and the “Relative activity (% in relation to Val)” value came to 1.1%.

For the molecule `CC(=O)N[C@@H](C(=O)O)C(C)C` [N-Ac-D-Val, N-acetyl-D-valine], in data set [3], the “Substrate specificity” value was “acted most effectively; also recorded: acting on”, the “Relative activity (% in relation to Met)” value came out at 762% and the “Relative activity (% in relation to Val)” value came to 100%.

With `CC(=O)N[C@@H](CCC(=O)O)C(=O)O` [N-Ac-L-Glu, N-acetyl-L-glutamic acid], in data set [3], the “Relative activity (% in relation to Met)” value was found to be 0% and the “Relative activity (% in relation to Val)” value is reported as 0%.

As for `CC(=O)N[C@@H](CC(C)C)C(=O)O` [N-Ac-L-Leu, N-acetyl-L-leucine], in data set [3], the “Substrate specificity” value is given as “does not act on”, the “Relative activity (% in relation to Met)” value is given as 0% and the “Relative activity (% in relation to Val)” value was 0%.

`CSCC[C@H](NC(C)=O)C(=O)O` [N-Ac-L-Met, N-acetyl-L-methionine]: in data set [3], the “Substrate specificity” value was “does not act on”, the “Relative activity (% in relation to Met)” value came out at 0% and the “Relative activity (% in relation to Val)” value turned out to be 0%.

Take `CC(=O)N[C@@H](Cc1ccccc1)C(=O)O` [N-Ac-L-Phe, N-acetyl-L-phenylalanine]: in data set [3], the “Substrate specificity” value is “does not act on”, the “Relative activity (% in relation to Met)” value was determined as 0% and the “Relative activity (% in relation to Val)” value was determined as 0%.

Consider `CC(=O)N[C@@H](Cc1c[nH]c2ccccc12)C(=O)O` [N-Ac-L-Trp, N-acetyl-L-tryptophan], for which, in data set [3], the “Substrate specificity” value is reported as “does not act on”, the “Relative activity (% in relation to Met)” value worked out at 0% and the “Relative activity (% in relation to Val)” value is on record as 0%.

Regarding `CC(=O)N[C@@H](Cc1ccc(O)cc1)C(=O)O` [N-Ac-L-Tyr, N-acetyl-L-tyrosine], in data set [3], the “Substrate specificity” value was “does not act on”, the “Relative activity (% in relation to Met)” value is listed as 0% and the “Relative activity (% in relation to Val)” value was determined as 0%.

Consider `CCN1C(=O)C=CC1=O` [N-ethylmaleimide], for which, in data set [1], the “Relative activity (%)” value is reported as 100%.

For `O.O.O.O.O.O.[Cl][Ni][Cl]` [Nickel chloride, nickel chloride hexahydrate], in data set [2], the “Effects of metal ions on activity” value is given as “inhibited” and the “Relative activity (%)” value was 20%.

In the case of `c1cnc2c(c1)ccc1cccnc12` [O-phenanthroline, o-phenanthroline], the “Effects of inhibitors on activity” value in data set [1] is reported as “inhibited”. Also, the results for the “Relative activity (%)” value in data set [1] and in data set [1] (listed as o-phenanthroline) were 53% and “less than 60%”, respectively.

In the case of `[Cl-].[K+]` [Potassium chloride, potassium chloride], the “Relative activity (%)” value in data set [2] is recorded as 92%.

`[Cl-].[Na+]` [Sodium chloride, sodium chloride]: in data set [2], the “Relative activity (%)” value is 99%.

With `[Na+].[Na+].[O]=[Mo](=[O])([O-])[O-]` [Sodium molybdate, sodium molybdate], the “Relative activity (%)” value in data set [2] worked out at 105%.

For the molecule `[Cl-].[Cl-].[Zn+2]` [Zinc chloride, zinc chloride], in data set [2], the “Effects of metal ions on activity” value is recorded as “inhibited” and the “Relative activity (%)” value is 31%.

iron (III) chloride hexahydrate: the “Relative activity (%)” value in data set [2] worked out at 88%.

B1: the enzyme of the present invention: D-aminoacylase from the Defluvibacter sp. A131-3 strain obtained in Example 3; amino acid sequence of SEQ ID NO. 2 (protein)
chain: MAKSFDLVIRNGRVVDPETGHDAIADVAVSGGQIVAVGPSLGAGKREIDATGLVVSPGFIDLHAHGQSIPADRMQAFDGVTTALELEVGSLPVARWYEQQQAGGRVLNYGTAAAWIFARKAVMIGMELDGRLAPIEMMGAGSDDMRWSVDAATAPQTDDIVRLTRQALEEGALGIGIPHGYAAGAGVKEMTRICELAAEFDRPTYTHIPYMSNIDPRSSVEAYVQLIGLAGATGAHMHICHLNSTSLRDVEDAARLIAKAQAQGLPITTEAYPYGTGSTVMSARFFIDSDFAERTGTGYDAIQVVSSGKRFENRDELVAARAETPEALVLWHYLDTDNPHDQRLLDVSVMYPGGAIASDAVPWSNPDGTLYTGEEWPLPADKTSHPRSAGTYTRFLAQWVREREAVPLVEAIAKCALIPAQIVERCSDVFRRKGRLQPGCDADIVIFDLESVQDRSTFEDMHLAADGMVHVLVNGEAVIANGELVRDARSGRAIRSTPR
modifications: Defluvibacter sp.A131-3
The molecule B1 gave an Optimal temperature in data set [4] of 37 °C. In data set [5], the “Isoelectric point (pI value)” value was 5.3. In data set [6], the “Residual activity at pH 6 or pH 11” value is reported as “not 0%” and the “pH at which the enzyme is most stable” value is listed as roughly 9 pH.
